Data set [1] deals with MCF7 cells. Nature of the data set: Apoptosis of MCF7 cells treated with ZOL and/or PAC, evaluated by nuclear morphology. The settings on record: for apoptosis: Experiment 2: 2 nM PAC 4 hours day 1, 1 μM ZOL 1 hour day 2, combined or alone, drug free medium to 48 hours. Type of data set: cell-based. Here is the method: MCF7 cells are seeded and pre-incubated then treated with ZOL and/or PAC in the sequences given below. In the case of the PAC then ZOL sequence, in one of the experiments geranylglycerol (GGOH, 50 μM) is added and then removed with the ZOL. Apoptosis is determined by evaluation of nuclear morphology.
Group 1: 25 μM ZOL (for 1 hour on day 1) followed by 2 nM PAC (for 4 hours day 2)
Group 2: 2 nM PAC (for 4 hours on day 1) followed by 25 μm ZOL (for 1 hour on day 2)
Following the last drug exposure the cells in each group are incubated in drug free medium to 48 hours.
2 nM PAC (for 4 hours on day 1) followed by 1 μM ZOL (for 1 hour on day 2). Following the last drug exposure the cells are incubated in drug free medium to 48 hours.
2 nM PAC (for 4 hours on day 1) followed by 25 μM or 1 μM ZOL (for 1 hour on day 2), with or without geranylgeraniol (GGOH) 50 μM (added and removed simultaneously with the ZOL). Following the last drug exposure the cells are incubated in drug free medium to 48 hours.

Data set [2] relates to MCF7Ca cells. The data set is described as follows: Apoptosis/necrosis of MCF7Ca cells, nuclear morphology after Hoechst and propidium iodide staining. The data set is classed as cell-based. The settings on record: for apoptotic cell death, each drug individually: MCF7Ca treated with each drug individually. Here is the method: (§1) Breast cancer cells MCF7Ca (gift from Dr Chen, NY, USA) are used. Letrozole and zoledronic acid are provided by Novartis AG, Basel, Switzerland.
Following the initial dose-response studies the sequential and combined treatments are carried out using 10 μM zoledronic acid and 100 nM letrozole for 24 hours each, followed by a drug-free incubation period up to 24 hours. In some additional studies 1 μM zoledronic acid is used for 1 hour only.
The levels of apoptotic/necrotic tumour cell death are determined by evaluation of nuclear morphology following staining of the cells using Hoechst and propidium iodide.
The levels of apoptosis and necrosis caused by increasing doses of zoledronic acid is determined by expressing the cells to zoledronic acid for 1 hour, followed by a 72 hour incubation in drug-free medium. [drawing]
The levels of apoptosis caused by increasing doses of letrozole is determined by exposing the cells to letrozole for 72 hours. [drawing]
Cells are treated with a combination of 100 nM letrozole and 10 μM zoledronic acid for 24 hours, and the levels of apoptotic cell death determined following an additional 48 hours incubation in drug-free medium. [drawing]
In this series of experiments the cells are exposed to 10 μM zoledronic acid for 24 hours, washed and subsequently treated with 100 nM letrozole for 24 hours. The levels of apoptotic cell death are determined following a further 24 hours incubation in drug-free medium. [drawing]
(GGOH is an intermediary of the mevalonate pathway and is commonly used to reverse the effects of zoledronic acid inhibition of this pathway). In this set of experiments cells are treated with 100 nM letrozole for 24 hours followed by 1 hour treatment with 10 μM zoledronic acid+50 μM GGOH. The level of apoptosis is determined at 72 hours.
These experiments are performed in order to determine if the effects of zoledronic acid and letrozole are affected by starving the cells by treating them under serum-free conditions. [drawing]

Data set [3] relates to MCF7Ca cells. Nature of the data set: MCF7Ca cell growth, cells counted with coulter counter. Type of data set: cell-based. On the procedure: as §1
MCF7Ca cells are exposed to increasing doses of zoledronic acid for 1 hour, the drug removed and the cells incubated in drug-free medium up to 72 hours. The number of cells are counted using a coulter counter. [drawing]
MCF7Ca cells are exposed to increasing doses of letrozole for 24, 48 and 72 hours. For the 24 and 48 hour time points the drug is removed and the cells incubated in drug-free medium up to 72 hours. The number of cells are counted using a coulter counter. [drawing]

Data set [4] relates to breast cancer lines MDA-MB-426 and MCF7. The data set is described as follows: Apoptosis of breast cancer cells treated with ZOL and TRAIL. The settings on record: single agents as controls. Type of data set: cell-based. On the procedure:
The breast cancer lines MDA-MB-426 and MCF7 and the prostate cancer cell line PC3 are treated with ZOL (25 μM and TRAIL (purchased from R&D systems, Abingdon, UK; 10 ng/ml) for varying incubation periods and sequences as follows:
Group 1: TRAIL given first for 24 hours followed by ZOL for 48 hours. […]
Group 3: ZOL and TRAIL given simultaneously for 24 hours.
Group 4: TRAIL given first for 24 hours then ZOL for 4 hours followed by drug-free medium for 48 hours.
Group 5: ZOL given first for 4 hours and cells maintained in drug-free medium for 48 hours followed by TRAIL for 24 hours.

For data set [5] the following is noted: following infusion of ZOL in vivo, for a few hours; cited from earlier work.
[6] abbreviates: 100 nM (highest dose tested), 72 hours.
Setting [7] is: 100 μM, 1 hour exposure, 72 hour drug-free.
[8] abbreviates: group 1: TRAIL 10 ng/ml 24 hours followed by ZOL 25 μM 48 hours.
Where [9] appears, read: group 2: ZOL 25 μM for 48 hours followed by TRAIL 10 ng/ml.
The mark [10] stands for this setting: group 3: ZOL 25 μM and TRAIL 10 ng/ml together for 24 hours.

The values below come from US20070219115A1, “Pharmaceutical Uses of Bisphosphonates” (priority 2003, published 2007).

On to `CC(C)=CCC/C(C)=C/CC/C(C)=C/CC/C(C)=C/CO` [GGOH, geranylgeraniol], for which, in data set [1] (Experiment 3: PAC followed by ZOL combined with GGOH 50 μM), the “prevention of the synergistic increase in apoptotic cell death” value is 70-80%. The “level of apoptosis with GGOH added” value in data set [2] (100 nM letrozole 24 hours followed by 1 hour 10 μM zoledronic acid + 50 μM GGOH, apoptosis at 72 hours) is “reduced to the same level observed using letrozole alone”.
Consider `CC(=O)O[C@H]1C(=O)[C@@]2(C)[C@H]([C@H](OC(=O)c3ccccc3)[C@]3(O)C[C@H](OC(=O)[C@H](O)[C@@H](NC(=O)c4ccccc4)c4ccccc4)C(C)=C1C3(C)C)[C@]1(OC(C)=O)CO[C@@H]1C[C@@H]2O` (relative stereo) [PAC, [2aR-[2aα, 4β, 4αβ, 6αβ, 9α(αR*, βS*),-11α,12α,12aα,12bα]]-β-(benzoylamino)-α-hydroxybenzenepropanoic acid 6,12b-bis(acetyloxy)-12-(benzoyloxy)-2α,3,4,4a,5,6,9,10,11,12,12a,12b-dodecahydro-4,11-dihydroxy-4a,8,13,13-tetramethyl-5-oxo-7,11-methano-1H-cyclodeca[3,4]benz[1,2-b]oxet-9-yl ester], for which, in data set [1], the apoptosis amounted to 1.25%.
`N#Cc1ccc(C(c2ccc(C#N)cc2)n2cncn2)cc1` [letrozole, 4-[α-(4-cyanophenyl)-1-(1,2,4-triazolyl)methyl]-benzonitrile]: in data set [3] (0.1 nM (all time points), 1 nM (24 and 48 hours)), the “effect on cell number at low doses” value is given as “Increased number of cells”. In addition, in data set [3] (100 nM letrozole, 72 hours), the “reduction in cell number compared to control” value turned out to be 31%. In addition, in data set [2] (setting [6]), the apoptosis entry is “less than 3%” and the necrosis entry is recorded as “less than 4%”. For the same molecule, the “apoptotic cell death, each drug individually” value in data set [2] is “do not induce significant levels of apoptotic cell death”.
For the molecule `O=P(O)(O)C(O)(Cn1ccnc1)P(=O)(O)O` [ZOL, 2-(imidazol-1yl)-1-hydroxyethane-1,1-diphosphonic acid], the apoptosis is 0.25% in data set [1], 0.5% in data set [4] (setting [8]), 0.7% in data set [4] (setting [9]) and 0.7% in data set [4] (setting [10]). The “doses causing a decrease in the number of MCF7Ca” value in data set [3] (1 hour exposure, drug-free medium up to 72 hours) is given as “above 1 μM”. Further, the apoptotic cells result in data set [2] (setting [7]) is recorded as “less than 3%”. Moreover, in data set [2] (setting [7]), the necrotic cell death is recorded as 4.5%. The “apoptotic cell death, each drug individually” value in data set [2] is given as “do not induce significant levels of apoptotic cell death”. Further, in data set [5], the peak plasma concentration is 1 to 2 µM.

B1: TRAIL: TNF-related apoptosis inducing ligand, purchased from R&D systems (protein, UniProt P50591 1-281, looked up)
Tumor necrosis factor ligand …: MAMMEVQGGPSLGQTCVLIVIFTVLLQSLCVAVTYVYFTNELKQMQDKYSKSGIACFLKEDDSYWDPNDEESMNSPCWQVKWQLRQLVRKMILRTSEETISTVQEKQQNISPLVRERGPQRVAAHITGTRGRSNTLSSPNSKNEKALGRKINSWESSRSGHSFLSNLHLRNGELVIHEKGFYYIYSQTYFRFQEEIKENTKNDKQMVQYIYKYTSYPDPILLMKSARNSCWSKDAEYGLYSIYQGGIFELKENDRIFVSVTNEHLIDMDHEASFFGAFLVG
Consider B1, for which the apoptosis in data set [4] (setting [8]) is reported as 1.75%; in data set [4] (setting [9]), 2.7%; in data set [4] (setting [10]) it was 1.75%.
